Source: the NIST ThermoML archive (doi:10.1021/je034102r)
Numbers after ± are expanded uncertainties.

Test: molar heat capacity at constant pressure
Conditions: 101.33 kPa, Liquid, heat bridge-scanning calorimeter

CCCCn1cc[n+](C)c1.F[P-](F)(F)(F)(F)F [1-butyl-3-methylimidazolium hexafluorophosphate]
Conditions | molar heat capacity at constant pressure [J/K/mol]
466.32 K | 494.48 ± 9.9
466.46 K | 494.76 ± 9.9
466.59 K | 495.05 ± 9.9
466.73 K | 495.9 ± 9.9
466.87 K | 495.33 ± 9.9
467 K | 495.33 ± 9.9
467.14 K | 495.33 ± 9.9
467.28 K | 495.05 ± 9.9
467.41 K | 495.33 ± 9.9
467.55 K | 495.05 ± 9.9
467.84 K | 495.05 ± 9.9
467.98 K | 495.33 ± 9.9
468.12 K | 495.33 ± 9.9
468.25 K | 495.9 ± 9.9
468.39 K | 495.9 ± 9.9
468.52 K | 495.61 ± 9.9
468.66 K | 495.61 ± 9.9
468.8 K | 495.33 ± 9.9
468.93 K | 495.05 ± 9.9
469.25 K | 495.33 ± 9.9
469.38 K | 495.33 ± 9.9
469.52 K | 495.33 ± 9.9
469.66 K | 495.33 ± 9.9
469.79 K | 495.61 ± 9.9
469.93 K | 495.61 ± 9.9
470.07 K | 495.61 ± 9.9
470.2 K | 495.61 ± 9.9
470.34 K | 496.18 ± 9.9
470.48 K | 495.61 ± 9.9
470.61 K | 495.9 ± 9.9
470.91 K | 495.9 ± 9.9
471.04 K | 496.18 ± 9.9
471.18 K | 496.47 ± 9.9
471.32 K | 496.47 ± 9.9
471.45 K | 496.47 ± 9.9
471.59 K | 496.47 ± 9.9
471.73 K | 496.47 ± 9.9
471.87 K | 496.18 ± 9.9
472 K | 496.47 ± 9.9
472.3 K | 496.47 ± 9.9
472.44 K | 496.47 ± 9.9
472.58 K | 496.47 ± 9.9
472.71 K | 496.75 ± 9.9
472.85 K | 496.75 ± 9.9
472.99 K | 496.47 ± 9.9
473.12 K | 496.47 ± 9.9
473.26 K | 496.47 ± 9.9
473.4 K | 496.47 ± 9.9
473.53 K | 496.47 ± 9.9
473.67 K | 497.03 ± 9.9
473.97 K | 498.17 ± 9.9
474.1 K | 497.6 ± 9.9
474.24 K | 497.32 ± 9.9
474.38 K | 497.32 ± 9.9
474.51 K | 497.6 ± 9.9
474.65 K | 497.32 ± 9.9
474.79 K | 497.03 ± 9.9
474.92 K | 496.75 ± 9.9
475.06 K | 496.75 ± 9.9
475.36 K | 496.75 ± 9.9
475.5 K | 497.03 ± 9.9
475.63 K | 496.75 ± 9.9
475.78 K | 497.03 ± 9.9
475.92 K | 497.03 ± 9.9
476.06 K | 497.03 ± 9.9
476.19 K | 497.03 ± 9.9
476.33 K | 497.03 ± 9.9
476.47 K | 497.32 ± 9.9
476.61 K | 497.32 ± 9.9
476.74 K | 497.32 ± 9.9
477.04 K | 497.6 ± 9.9
477.18 K | 497.32 ± 9.9
477.31 K | 497.6 ± 9.9
477.45 K | 498.17 ± 9.9
477.59 K | 497.89 ± 9.9
477.72 K | 497.89 ± 9.9
477.86 K | 497.89 ± 9.9
478 K | 497.6 ± 9.9
478.13 K | 497.6 ± 9.9
478.44 K | 497.6 ± 9.9
478.57 K | 497.6 ± 9.9
478.71 K | 497.6 ± 9.9
478.85 K | 497.6 ± 9.9
478.98 K | 497.6 ± 9.9
479.12 K | 497.89 ± 9.9
479.26 K | 497.6 ± 9.9
479.39 K | 497.6 ± 9.9
479.53 K | 497.89 ± 9.9
479.67 K | 497.89 ± 9.9
479.81 K | 498.17 ± 9.9
480.1 K | 498.17 ± 9.9
480.24 K | 498.17 ± 9.9
480.38 K | 497.89 ± 9.9
480.51 K | 498.17 ± 9.9
480.65 K | 498.17 ± 9.9
